In test [1] the test system is mice. Particulars: reported by Addex 2010; cited from earlier work.
The subject of test [2] is mice. The following applies: reported by Addex 2010; cited from earlier work. This is another data set of the same source.
The subject of another test is rats. Particulars: cited from earlier work.
A further test relates to rodent. Particulars: 6-OHDA rodent model of PD; cited from earlier work.
The target in the next test is T1, human mGlu4 receptor (Homo sapiens, UniProt Q14833).
T1 construct: expressed in transfected cells; host or cells: monoclonal HEK-293 cell line, stably transfected
Description: Ca2+ mobilization in vitro assay on recombinant human mGlu4 expressed in HEK293 cells (PAM, L-AP4 at EC20). Format: cell-based. The following applies: for Emax: HEK293, maximal response in % of the maximal stimulatory effect obtained with saturating concentrations of L-AP4, read-out: Eff. (%); for EC50: HEK293 cells expressing human mGlu4, L-AP4 added at EC20. Background: Calcium assays in cells follow changes in intracellular calcium, usually with a dye or a luminescent sensor.

Test [3] has as its system mice. The following applies: mice treated with MPTP; cited from earlier work.

T1 sequence (Q14833 33-912): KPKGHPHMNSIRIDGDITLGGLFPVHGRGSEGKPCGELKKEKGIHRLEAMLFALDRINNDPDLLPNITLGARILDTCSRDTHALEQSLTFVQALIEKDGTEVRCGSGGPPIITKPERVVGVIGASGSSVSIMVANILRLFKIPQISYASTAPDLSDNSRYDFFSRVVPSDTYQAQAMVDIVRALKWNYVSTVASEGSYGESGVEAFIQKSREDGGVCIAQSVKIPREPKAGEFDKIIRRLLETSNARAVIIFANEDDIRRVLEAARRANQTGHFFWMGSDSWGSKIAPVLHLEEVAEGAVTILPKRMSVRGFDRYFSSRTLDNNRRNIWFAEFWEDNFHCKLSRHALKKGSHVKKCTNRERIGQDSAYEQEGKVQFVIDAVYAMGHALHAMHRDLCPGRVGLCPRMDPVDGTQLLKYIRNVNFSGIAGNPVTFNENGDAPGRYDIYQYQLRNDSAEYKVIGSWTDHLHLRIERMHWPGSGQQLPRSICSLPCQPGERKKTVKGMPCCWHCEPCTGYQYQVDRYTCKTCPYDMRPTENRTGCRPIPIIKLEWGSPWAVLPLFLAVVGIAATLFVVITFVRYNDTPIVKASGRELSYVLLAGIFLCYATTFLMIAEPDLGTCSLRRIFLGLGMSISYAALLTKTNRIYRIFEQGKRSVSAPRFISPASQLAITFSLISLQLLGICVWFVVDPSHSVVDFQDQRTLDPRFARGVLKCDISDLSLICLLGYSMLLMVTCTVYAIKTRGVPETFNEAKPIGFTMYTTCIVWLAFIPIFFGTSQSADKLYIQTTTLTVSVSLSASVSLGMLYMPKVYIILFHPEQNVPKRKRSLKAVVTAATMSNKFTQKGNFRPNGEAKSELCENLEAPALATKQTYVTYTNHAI

In the case of `Cc1ccnc(Nc2nc(-c3cn[nH]c3)c(C)s2)n1` [ADX88178], in the test on mice [1], the “activity in marble burying test” value is given as “active”. In addition, the “activity in EPM” value in the test on mice [2] was “active”; in the test with rats (rats, reported by Addex 2010), “active”. The “profile in the rat EPM test” value in the test with rats (rat, after oral dosing) is recorded as “anxiolytic-like profile”.
As to `N[C@@H](CCP(=O)(O)O)C(=O)O` [L-AP4, (2S)-2-amino-4-phosphonobutanoic acid], in the test with rodent, the “neuroprotection in 6-OHDA model” value is given as “neuroprotective effects”.
Consider `CN1C(=O)N(c2c(F)cc(C#Cc3cnsc3)cc2F)C(=O)C[C@@]1(C)c1cnn(C)c1` [Example 25, (6S)-3-[2,6-Difluoro-4-(2-isothiazol-4-ylethynyl)phenyl]-1,6-dimethyl-6-(1-methylpyrazol-4-yl)hexahydropyrimidine-2,4-dione], for which, at human mGlu4 receptor, the Emax amounted to 149% and the concentration for a half-maximal effect (EC50) – broadly, the concentration that produces a half-maximal response – amounted to 45 nM.
The matching figures for `CCN1C(=O)N(c2c(F)cc(C#Cc3ccccc3)cc2F)C(=O)C[C@@]1(C)c1cnn(C)c1` [Example 12, (6S)-3-[2,6-Difluoro-4-(2-phenylethynyl)phenyl]-1-ethyl-6-methyl-6-(1-methylpyrazol-4-yl)hexahydropyrimidine-2,4-dione]: 95% and 67 nM.
The matching figures for `CN1C(=O)N(c2c(F)cc(C#Cc3ccccc3)cc2F)C(=O)C[C@@]1(C)c1cc[nH]n1` [Example 10, (6S)-3-[2,6-Difluoro-4-(2-phenylethynyl)phenyl]-1,6-dimethyl-6-(1H-pyrazol-3-yl)hexahydropyrimidine-2,4-dione]: 134% and 84 nM.
In the same order, the values of `CN1C(=O)N(c2c(F)cc(C#Cc3ccccc3)cc2F)C(=O)C[C@@]1(C)c1nn(C)c2ncccc12` [Example 17, (6S)-3-[2,6-Difluoro-4-(2-phenylethynyl)phenyl]-1,6-dimethyl-6-(1-methylpyrazolo[3,4-b]pyridin-3-yl)hexahydropyrimidine-2,4-dione] are 154% and 126 nM.
Take `CC(C)n1cc([C@]2(C)CC(=O)N(c3c(F)cc(C#Cc4ccccc4)cc3F)C(=O)N2C)cn1` [Example 19, (6S)-3-[2,6-Difluoro-4-(2-phenylethynyl)phenyl]-6-(1-isopropylpyrazol-4-yl)-1,6-dimethyl-hexahydropyrimidine-2,4-dione]: on human mGlu4 receptor, the Emax was 139% and the EC50 was found to be 36 nM.
As for `CC[C@@]1(c2cn[nH]c2)CC(=O)N(c2c(F)cc(C#Cc3ccccc3)cc2F)C(=O)N1C` [Example 45, (6S)-3-[2,6-Difluoro-4-(2-phenylethynyl)phenyl]-6-ethyl-1-methyl-6-(1H-pyrazol-4-yl)hexahydropyrimidine-2,4-dione], at human mGlu4 receptor, the Emax was determined as 126% and the EC50 is 39 nM.
For `CN1C(=O)N(c2c(F)cc(C#Cc3ccccc3)cc2F)C(=O)C[C@@]1(C)c1cnn(C)n1` [Example 33, (6S)-3-[2,6-Difluoro-4-(2-phenylethynyl)phenyl]-1,6-dimethyl-6-(2-methyltriazol-4-yl)hexahydropyrimidine-2,4-dione], at human mGlu4 receptor, the Emax came out at 196% and the EC50 came out at 59 nM.
With `O=C(Nc1ccccc1)C12CC1/C(=N\O)c1ccccc1O2` (single isomer, unassigned; (-)) [(−)-PHCCC], the nigrostriatal degeneration entry in the test on mice [3] is recorded as “reduced nigrostriatal degeneration”.
Regarding `CCn1ccc([C@]2(C)CC(=O)N(c3c(F)cc(C#Cc4ccccc4)cc3F)C(=O)N2C)n1` [Example 28, (6S)-3-[2,6-Difluoro-4-(2-phenylethynyl)phenyl]-6-(1-ethylpyrazol-3-yl)-1,6-dimethyl-hexahydropyrimidine-2,4-dione], on human mGlu4 receptor, the Emax stood at 139% and the half-maximal effective concentration (EC50) amounted to 96 nM.
The matching figures for `COCCn1cc([C@]2(C)CC(=O)N(c3c(F)cc(C#Cc4ccccc4)cc3F)C(=O)N2C)cn1` [Example 20, (6S)-3-[2,6-Difluoro-4-(2-phenylethynyl)phenyl]-6-[1-(2-methoxyethyl)pyrazol-4-yl]-1,6-dimethyl-hexahydropyrimidine-2,4-dione]: 137% and 54 nM.
Consider `CN1C(=O)N(c2c(F)cc(C#Cc3ccccc3)cc2F)C(=O)C[C@@]1(C)c1cnsc1` [Example 15, (6S)-3-[2,6-Difluoro-4-(2-phenylethynyl)phenyl]-6-isothiazol-4-yl-1,6-dimethyl-hexahydropyrimidine-2,4-dione], for which, at human mGlu4 receptor, the Emax was found to be 167% and the EC50 came out at 38 nM.
